The source of these data is ChEMBL document CHEMBL5465560, “Selectivity Literature for EUbOPEN Chemogenomic Library” (2024).

Assay [1] concerns the target AP2-associated protein kinase 1 (Homo sapiens, UniProt Q2M2I8). As to the kind of experiment: Selectivity interaction (Kinase panel (DSF assay)) EUB0001558a AAK1. In general terms: DSF heats the sample and reads unfolding from a dye or from intrinsic fluorescence.
Assay [2] deals with Rho-associated protein kinase 1 (Homo sapiens) (UniProt Q13464). As to the kind of experiment: Selectivity interaction (KinomeScan (DiscoverX)) EUB0000092b ROCK1. As to conditions: at 10 µM.
Assay [3] concerns the target Serine/threonine-protein kinase 26 (Homo sapiens, UniProt Q9P289). As to the kind of experiment: Selectivity interaction (KinomeScan (DiscoverX)) EUB0001049a STK26. As to conditions: at 1 µM.
The target in assay [4] is T1, Dual specificity protein kinase TTK (Homo sapiens) (UniProt P33981).
T1 sequence (whole entry): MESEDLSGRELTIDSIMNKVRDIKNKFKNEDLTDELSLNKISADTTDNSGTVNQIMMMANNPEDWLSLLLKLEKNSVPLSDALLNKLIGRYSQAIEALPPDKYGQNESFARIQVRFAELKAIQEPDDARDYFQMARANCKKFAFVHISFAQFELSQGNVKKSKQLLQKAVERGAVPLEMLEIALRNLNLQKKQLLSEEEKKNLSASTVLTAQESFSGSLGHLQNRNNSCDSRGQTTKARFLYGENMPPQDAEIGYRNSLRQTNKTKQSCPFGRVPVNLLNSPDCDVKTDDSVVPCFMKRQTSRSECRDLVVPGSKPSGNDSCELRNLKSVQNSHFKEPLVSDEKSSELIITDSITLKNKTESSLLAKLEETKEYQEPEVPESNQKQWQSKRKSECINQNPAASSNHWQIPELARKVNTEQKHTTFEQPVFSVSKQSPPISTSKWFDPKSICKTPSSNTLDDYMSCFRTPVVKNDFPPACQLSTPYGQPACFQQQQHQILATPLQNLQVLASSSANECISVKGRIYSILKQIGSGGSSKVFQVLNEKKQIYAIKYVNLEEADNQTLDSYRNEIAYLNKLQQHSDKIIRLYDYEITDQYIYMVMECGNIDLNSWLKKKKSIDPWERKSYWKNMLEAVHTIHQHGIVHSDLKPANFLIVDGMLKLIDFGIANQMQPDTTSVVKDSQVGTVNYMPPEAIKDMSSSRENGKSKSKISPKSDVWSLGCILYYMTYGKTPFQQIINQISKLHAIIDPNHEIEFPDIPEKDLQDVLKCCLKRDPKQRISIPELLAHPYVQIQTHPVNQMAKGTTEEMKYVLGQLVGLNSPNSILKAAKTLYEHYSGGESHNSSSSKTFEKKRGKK
As to the kind of experiment: Selectivity interaction (KinomeScan (DiscoverX)) EUB0001049a TTK. As to conditions: at 1 µM.

Assay [5] concerns the target MAP kinase-interacting serine/threonine-protein kinase 2 (Homo sapiens, UniProt Q9HBH9). As to the kind of experiment: Selectivity interaction (Kinase panel (Carna Biosciences)) EUB0001542aTs MKNK2. As to conditions: at 1 µM.
Assay [6] concerns the target Histone-lysine N-methyltransferase ASH1L (Homo sapiens) (UniProt Q9NR48). Description: Selectivity interaction (Bromodomain panel (DSF asssay)) EUB0000270b ASH1L.
In assay [7] the target is Mitogen-activated protein kinase kinase kinase 8 (Homo sapiens, UniProt P41279). Description: Selectivity interaction (Kinase panel (Z-LYTE Assay)) EUB0001632a MAP3K8. As to conditions: at 10 µM.
Chain of Mitogen-activated protein kinase kinase kinase 8 (P41279 whole entry): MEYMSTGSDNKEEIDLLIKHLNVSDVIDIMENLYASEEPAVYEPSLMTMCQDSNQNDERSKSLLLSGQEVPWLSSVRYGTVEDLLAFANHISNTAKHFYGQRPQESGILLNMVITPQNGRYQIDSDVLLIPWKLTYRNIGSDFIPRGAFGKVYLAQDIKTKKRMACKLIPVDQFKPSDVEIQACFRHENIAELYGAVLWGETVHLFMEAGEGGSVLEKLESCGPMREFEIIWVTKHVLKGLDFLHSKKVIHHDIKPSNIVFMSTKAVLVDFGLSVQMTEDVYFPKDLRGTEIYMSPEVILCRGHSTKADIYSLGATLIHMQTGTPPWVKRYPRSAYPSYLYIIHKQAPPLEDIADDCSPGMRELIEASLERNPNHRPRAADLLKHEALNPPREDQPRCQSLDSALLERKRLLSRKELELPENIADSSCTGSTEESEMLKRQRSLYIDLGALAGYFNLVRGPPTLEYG
The target of assay [8] is Mitogen-activated protein kinase kinase kinase 21 (Homo sapiens) (UniProt Q5TCX8). As to the kind of experiment: Selectivity interaction (LanthaScreen Eu Kinase Binding Assay) EUB0001632a MAP3K21. As to conditions: at 10 µM.
Chain of Mitogen-activated protein kinase kinase kinase 21 (Homo sapiens) (Q5TCX8 whole entry): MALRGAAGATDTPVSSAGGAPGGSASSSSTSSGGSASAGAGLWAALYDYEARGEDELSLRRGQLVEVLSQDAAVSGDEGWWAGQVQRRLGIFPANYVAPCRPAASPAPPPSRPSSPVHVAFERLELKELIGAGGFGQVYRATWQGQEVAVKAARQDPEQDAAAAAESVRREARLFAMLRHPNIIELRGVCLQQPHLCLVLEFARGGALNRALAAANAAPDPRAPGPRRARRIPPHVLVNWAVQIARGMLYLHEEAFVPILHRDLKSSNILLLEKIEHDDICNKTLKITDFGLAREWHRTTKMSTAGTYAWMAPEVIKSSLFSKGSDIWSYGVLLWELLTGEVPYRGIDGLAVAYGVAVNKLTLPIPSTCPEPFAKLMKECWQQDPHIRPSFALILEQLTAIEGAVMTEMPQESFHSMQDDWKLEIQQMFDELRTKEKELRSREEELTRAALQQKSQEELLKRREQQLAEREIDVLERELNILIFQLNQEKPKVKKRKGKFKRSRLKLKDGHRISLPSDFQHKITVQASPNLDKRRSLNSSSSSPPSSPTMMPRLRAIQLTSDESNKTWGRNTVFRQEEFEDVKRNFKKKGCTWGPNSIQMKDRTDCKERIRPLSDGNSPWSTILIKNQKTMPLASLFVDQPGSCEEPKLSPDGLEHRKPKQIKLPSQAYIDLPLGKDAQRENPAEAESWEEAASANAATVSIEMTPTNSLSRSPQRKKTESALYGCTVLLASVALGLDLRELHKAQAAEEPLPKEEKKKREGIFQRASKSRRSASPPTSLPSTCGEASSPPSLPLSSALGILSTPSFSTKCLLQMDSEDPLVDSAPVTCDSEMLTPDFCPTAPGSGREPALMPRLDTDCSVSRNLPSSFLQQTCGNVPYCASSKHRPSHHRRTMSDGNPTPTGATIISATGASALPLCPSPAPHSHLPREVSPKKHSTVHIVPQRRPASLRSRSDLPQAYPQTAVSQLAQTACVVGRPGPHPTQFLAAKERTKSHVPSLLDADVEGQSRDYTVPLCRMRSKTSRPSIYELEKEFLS
Assay [9] deals with Ribosomal protein S6 kinase beta-1 (Homo sapiens, UniProt P23443). Description: Selectivity interaction (ActivX KiNativ screen (kinase selectivity in THP-1 cell lysates)) EUB0000639a RPS6KB1. It counts as subcellular. As to conditions: lysate, at 5 µM.
Chain of Ribosomal protein S6 kinase beta-1 (P23443 whole entry, looked up): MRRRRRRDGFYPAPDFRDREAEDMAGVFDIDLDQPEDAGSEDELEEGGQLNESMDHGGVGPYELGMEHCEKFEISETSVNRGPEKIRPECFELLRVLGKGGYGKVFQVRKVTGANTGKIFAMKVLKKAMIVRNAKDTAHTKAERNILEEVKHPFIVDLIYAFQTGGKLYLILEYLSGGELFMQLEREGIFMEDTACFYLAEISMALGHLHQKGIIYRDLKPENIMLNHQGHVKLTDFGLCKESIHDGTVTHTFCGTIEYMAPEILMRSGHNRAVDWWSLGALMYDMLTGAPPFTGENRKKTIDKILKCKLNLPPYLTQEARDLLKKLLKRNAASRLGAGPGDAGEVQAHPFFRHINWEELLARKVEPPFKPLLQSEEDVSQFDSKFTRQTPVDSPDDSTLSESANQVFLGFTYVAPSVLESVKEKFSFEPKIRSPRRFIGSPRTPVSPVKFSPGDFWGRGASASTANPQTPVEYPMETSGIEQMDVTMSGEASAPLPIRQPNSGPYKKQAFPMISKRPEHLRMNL
The target in assay [10] is T2, Hormonally up-regulated neu tumor-associated kinase (Homo sapiens) (UniProt P57058).
T2 sequence (whole entry): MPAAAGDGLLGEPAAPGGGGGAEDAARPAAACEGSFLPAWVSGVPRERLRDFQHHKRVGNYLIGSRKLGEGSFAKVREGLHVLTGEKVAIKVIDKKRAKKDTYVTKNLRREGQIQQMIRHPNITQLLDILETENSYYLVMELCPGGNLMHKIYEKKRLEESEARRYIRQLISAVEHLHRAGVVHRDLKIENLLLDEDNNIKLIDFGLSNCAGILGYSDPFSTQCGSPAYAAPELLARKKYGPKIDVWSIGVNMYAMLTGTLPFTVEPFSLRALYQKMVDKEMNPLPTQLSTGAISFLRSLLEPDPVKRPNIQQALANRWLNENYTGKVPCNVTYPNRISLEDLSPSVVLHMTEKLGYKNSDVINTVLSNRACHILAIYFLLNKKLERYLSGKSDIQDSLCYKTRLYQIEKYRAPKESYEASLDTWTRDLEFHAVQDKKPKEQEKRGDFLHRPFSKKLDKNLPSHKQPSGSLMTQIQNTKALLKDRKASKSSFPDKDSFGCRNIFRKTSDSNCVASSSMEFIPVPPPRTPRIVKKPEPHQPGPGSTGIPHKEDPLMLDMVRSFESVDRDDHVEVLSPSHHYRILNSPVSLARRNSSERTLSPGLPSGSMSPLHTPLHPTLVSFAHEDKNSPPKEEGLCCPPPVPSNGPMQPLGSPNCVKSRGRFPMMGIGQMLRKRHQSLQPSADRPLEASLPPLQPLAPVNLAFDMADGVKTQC
Description: Selectivity interaction (KinomeScan (DiscoverX)) EUB0000229b HUNK. As to conditions: at 10 µM.

For assay [11], the target named is Ribosomal protein S6 kinase alpha-3 (Homo sapiens, UniProt P51812). As to the kind of experiment: Selectivity interaction (KinomeScan (DiscoverX)) EUB0000311b RPS6KA3. As to conditions: at 1 µM.
Chain of Ribosomal protein S6 kinase alpha-3 (P51812 whole entry): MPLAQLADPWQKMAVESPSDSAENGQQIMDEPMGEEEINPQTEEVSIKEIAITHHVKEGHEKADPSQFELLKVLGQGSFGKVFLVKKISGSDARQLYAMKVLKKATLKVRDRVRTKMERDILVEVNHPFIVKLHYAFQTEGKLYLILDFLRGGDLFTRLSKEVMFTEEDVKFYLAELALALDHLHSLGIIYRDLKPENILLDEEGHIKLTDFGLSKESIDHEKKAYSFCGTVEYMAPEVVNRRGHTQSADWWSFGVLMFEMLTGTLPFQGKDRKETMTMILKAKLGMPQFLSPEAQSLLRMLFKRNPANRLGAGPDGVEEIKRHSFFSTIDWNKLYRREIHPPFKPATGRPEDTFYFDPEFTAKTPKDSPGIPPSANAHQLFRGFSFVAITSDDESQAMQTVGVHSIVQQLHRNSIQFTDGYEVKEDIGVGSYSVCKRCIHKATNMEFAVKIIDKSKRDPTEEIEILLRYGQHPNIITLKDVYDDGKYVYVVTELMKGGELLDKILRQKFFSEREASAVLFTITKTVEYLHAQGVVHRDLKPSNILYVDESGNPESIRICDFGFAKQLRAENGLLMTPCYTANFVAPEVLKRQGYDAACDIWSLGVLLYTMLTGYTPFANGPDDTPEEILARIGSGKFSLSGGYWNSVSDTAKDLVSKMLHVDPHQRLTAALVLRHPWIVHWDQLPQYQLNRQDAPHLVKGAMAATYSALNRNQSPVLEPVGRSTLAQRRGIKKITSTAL
The target of assay [12] is Serine/threonine-protein kinase pim-1 (Homo sapiens, UniProt P11309). As to the kind of experiment: Selectivity interaction (KinomeScan (DiscoverX)) EUB0001619a PIM1. As to conditions: at 1 µM.
Chain of Serine/threonine-protein kinase pim-1 (P11309 whole entry, looked up): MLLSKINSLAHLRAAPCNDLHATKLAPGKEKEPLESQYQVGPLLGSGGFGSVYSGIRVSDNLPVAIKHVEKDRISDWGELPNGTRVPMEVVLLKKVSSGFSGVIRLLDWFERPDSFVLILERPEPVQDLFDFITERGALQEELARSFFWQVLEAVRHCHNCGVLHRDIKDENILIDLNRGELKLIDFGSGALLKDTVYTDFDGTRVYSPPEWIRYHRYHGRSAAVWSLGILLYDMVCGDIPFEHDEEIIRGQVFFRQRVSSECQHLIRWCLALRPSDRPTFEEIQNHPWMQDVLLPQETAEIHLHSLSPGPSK
The target of assay [13] is Tyrosine-protein kinase ABL1 (Homo sapiens, UniProt P00519). Description: Selectivity interaction (KinomeScan (DiscoverX)) EUB0000618a ABL1. As to conditions: at 10 µM.

Chain of AP2-associated protein kinase 1 (Q2M2I8 whole entry, looked up): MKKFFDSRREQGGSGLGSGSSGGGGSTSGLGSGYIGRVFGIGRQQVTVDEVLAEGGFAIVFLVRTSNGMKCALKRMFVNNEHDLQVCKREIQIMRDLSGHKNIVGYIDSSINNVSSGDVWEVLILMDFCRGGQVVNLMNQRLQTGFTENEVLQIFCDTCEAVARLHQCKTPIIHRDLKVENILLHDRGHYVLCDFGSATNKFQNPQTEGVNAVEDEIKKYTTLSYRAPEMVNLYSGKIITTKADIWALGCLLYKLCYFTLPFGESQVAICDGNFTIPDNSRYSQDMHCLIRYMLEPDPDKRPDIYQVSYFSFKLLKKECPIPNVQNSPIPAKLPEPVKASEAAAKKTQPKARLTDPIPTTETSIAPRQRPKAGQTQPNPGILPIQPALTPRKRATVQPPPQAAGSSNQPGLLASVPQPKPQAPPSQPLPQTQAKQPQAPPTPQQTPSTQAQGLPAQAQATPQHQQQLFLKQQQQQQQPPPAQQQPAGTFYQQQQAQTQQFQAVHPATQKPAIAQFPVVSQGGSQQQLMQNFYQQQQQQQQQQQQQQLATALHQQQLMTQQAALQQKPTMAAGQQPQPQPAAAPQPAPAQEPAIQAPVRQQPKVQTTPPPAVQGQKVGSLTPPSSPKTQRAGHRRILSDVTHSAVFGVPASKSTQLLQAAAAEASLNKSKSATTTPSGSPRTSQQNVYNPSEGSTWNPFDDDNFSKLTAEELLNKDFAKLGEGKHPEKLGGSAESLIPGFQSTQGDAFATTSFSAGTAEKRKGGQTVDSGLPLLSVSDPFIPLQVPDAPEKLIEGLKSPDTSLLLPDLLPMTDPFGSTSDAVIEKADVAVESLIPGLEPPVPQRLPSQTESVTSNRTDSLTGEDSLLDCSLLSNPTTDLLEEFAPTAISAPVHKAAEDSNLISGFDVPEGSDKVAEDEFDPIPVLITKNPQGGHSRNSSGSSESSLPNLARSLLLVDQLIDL
Chain of Serine/threonine-protein kinase 26 (Q9P289 2-416 limits assumed): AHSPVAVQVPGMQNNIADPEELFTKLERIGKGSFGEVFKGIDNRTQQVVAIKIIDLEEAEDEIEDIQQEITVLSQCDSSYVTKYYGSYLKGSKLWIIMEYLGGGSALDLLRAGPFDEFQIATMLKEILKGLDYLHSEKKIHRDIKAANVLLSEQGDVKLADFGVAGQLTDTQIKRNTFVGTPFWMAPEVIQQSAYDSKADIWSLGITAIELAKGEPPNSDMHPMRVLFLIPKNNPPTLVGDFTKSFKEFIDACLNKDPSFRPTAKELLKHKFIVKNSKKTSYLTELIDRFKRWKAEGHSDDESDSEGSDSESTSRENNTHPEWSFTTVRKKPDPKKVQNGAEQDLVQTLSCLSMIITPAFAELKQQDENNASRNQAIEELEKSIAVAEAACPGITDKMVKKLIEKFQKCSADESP
Chain of MAP kinase-interacting serine/threonine-protein kinase 2 (Q9HBH9 whole entry, looked up): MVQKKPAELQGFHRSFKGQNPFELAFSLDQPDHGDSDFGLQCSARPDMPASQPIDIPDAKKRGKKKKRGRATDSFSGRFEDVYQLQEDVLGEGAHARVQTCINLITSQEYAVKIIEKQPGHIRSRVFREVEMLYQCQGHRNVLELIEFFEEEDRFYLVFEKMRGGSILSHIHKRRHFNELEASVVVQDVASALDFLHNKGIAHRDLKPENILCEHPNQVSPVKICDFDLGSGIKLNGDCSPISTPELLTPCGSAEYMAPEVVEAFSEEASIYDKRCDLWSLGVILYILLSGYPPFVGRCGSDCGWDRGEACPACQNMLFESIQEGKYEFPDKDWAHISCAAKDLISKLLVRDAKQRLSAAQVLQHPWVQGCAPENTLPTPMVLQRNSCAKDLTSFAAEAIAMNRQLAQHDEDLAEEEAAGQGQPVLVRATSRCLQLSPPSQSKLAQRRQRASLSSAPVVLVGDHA

With `CC(C)(O)[C@H](F)CN1Cc2cc(NC(=O)c3cnn4cccnc34)c(N3CCOCC3)cc2C1=O`, the dTM in assay [1] worked out at 0.2 K.
In [2], `CCC(=O)N1CCN(c2ccc(-n3c(=O)ccc4cnc5ccc(-c6cnc7ccccc7c6)cc5c43)cc2C(F)(F)F)CC1` showed a % of control of 53%.
Turning to `COc1cc(Nc2nc(C)cc(-c3cnn4nc(OC)ccc34)n2)cc(C(F)(F)F)c1`, the % of control is 85% in assay [3] and 90% in assay [4].
For `Cn1cc(Nc2nccc(N3CC4CCC(C3)N4C(=O)[C@@H]3CC3(F)F)n2)cn1`, the % of inhibition in assay [5] came to 68%.
`Cc1cc(CN)cc(C)c1-c1ncn(C)c1-c1cncn1C` yielded a dTM in assay [6] of -1.06 K.
For `Cn1cc(-n2cnc3c(NCc4nc5cc(Cl)c(Cl)cc5[nH]4)nc(N4CCOCC4)nc32)cn1`, in assay [7], the % of control worked out at 4.18%. Moreover, the % of inhibition in assay [8] is -59.8%.
For the molecule `CC[C@@H]1[C@H](F)C(=O)N[C@@H]1COc1nccc2cc(C(N)=O)c(OC)cc12` [ZIMLOVISERTIB], the % of inhibition in assay [9] came out at 3.9%.
In turn, `COc1cc(N(C)c2ccnc3ccc(C(F)(F)F)cc23)cc(OC)c1OC` returned a % binding in [10] of 93%.
For `CCc1ccccc1C(=O)Nc1n[nH]c2c(C)c(F)c(C3C(C#N)=C(C)N(C)C(C)=C3C#N)cc12` [BAY-3827], the % of control in assay [11] was determined as 0.3%.
With `N#Cc1cccc(-c2c[nH]c3ncnc(N4CCOCC4)c23)c1`, in [12], the % of control turned out to be 100%.
Molecule `O[C@H]1CC[C@H](Nc2ncc3nc(Nc4c(F)cc(F)cc4F)n([C@H]4CCOC4)c3n2)CC1` displayed a % of control in assay [13] of 34%.
